Source: ChEMBL document CHEMBL1201862, “PubChem BioAssay data set” (2004)
Where a name gives a salt, the structure may show the parent alone.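 Each compound was tested at five concentrations against cells in 96-well plates for 48 hours. Abbreviation: GI50, concentration required for 50% inhibition of growth.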 Active and inactive are the calls of the source. No stated cut-off is given here; in the data, active = GI50 up to about 1.1 µM and inactive = higher. Where a SMILES comes first, the peptide text is derived from it. The star is where a group is joined. Boc = CC(C)(C)OC(=O)*

Assays:
Assay in all cases: DTP human tumour cell line panel, 48 h
[1] = test system: A498
[2] = test system: CCRF-CEM
[3] = test system: COLO 205
[4] = test system: K562
[5] = test system: KM12
[6] = test system: LOX IMVI
[7] = test system: MCF7
[8] = test system: NCI-H23
[9] = test system: OVCAR-3
[10] = test system: RXF 393
[11] = test system: SF-295
[12] = test system: SN12C
[13] = test system: SNB-75
[14] = test system: U-251
[15] = test system: ACHN
[16] = test system: MDA-MB-435
[17] = test system: SF-268
[18] = test system: TK-10
[19] = test system: UACC-62
[20] = test system: EKVX

Measured: GI50

O=C(/C=C\c1ccc(/C=C/C(=O)Nc2cccc(C3=NCCCN3)c2)cc1)Nc1cccc(C2=NCCCN2)c1
inactive: [1] > 74.3 µM | [2] > 100 µM | [3] 4.06 µM | [4] > 100 µM | [5] > 100 µM | [6] > 100 µM | [7] 16.3 µM | [8] > 100 µM | [9] > 100 µM | [10] > 100 µM | [11] > 100 µM | [12] > 100 µM | [13] > 69.3 µM | [14] > 100 µM

CCCCCCCCCCCCn1c(=O)cc(NCCCC)c2cc3c(NCCCC)cc(=O)n(CCCCCCCCCCCC)c3nc21
inactive: [1] > 100 µM | [15] > 100 µM | [3] > 100 µM | [4] > 100 µM | [5] > 100 µM | [7] > 100 µM | [16] > 100 µM | [8] > 100 µM | [9] > 100 µM | [17] 99.1 µM | [11] > 100 µM | [12] > 100 µM | [13] > 100 µM | [18] > 100 µM | [14] > 100 µM | [19] > 100 µM

COc1cc(-c2ccccc2)cn2c1nc1ccccc12
inactive: [15] 20 µM | [2] 25.5 µM | [3] 19.2 µM | [4] 25.2 µM | [5] 17.9 µM | [6] 22.3 µM | [7] 17.1 µM | [16] 18.9 µM | [8] 35 µM | [9] 16.4 µM | [10] 17.3 µM | [17] 26.1 µM | [12] 19.8 µM | [13] 17.6 µM | [14] 20 µM | [19] 18.7 µM

COc1cc(C2SCC(=O)N2c2cccc(Cl)c2)cc(OC)c1OC (stereo not given)
inactive: [1] > 100 µM | [15] > 100 µM | [2] 27.7 µM | [3] > 100 µM | [20] 76.9 µM | [4] 36.1 µM | [5] 47.8 µM | [6] 70.1 µM | [7] 46.8 µM | [16] 29.5 µM | [8] > 100 µM | [17] > 100 µM | [11] 43.7 µM | [12] 56.9 µM | [18] > 100 µM | [14] > 100 µM | [19] 11.3 µM

COc1ccc2cc(C(=O)Nc3ccc(O)c(C(=O)O)c3)ccc2c1OC
inactive: [15] > 100 µM | [2] > 100 µM | [20] > 100 µM | [4] > 100 µM | [5] > 100 µM | [6] > 100 µM | [7] > 100 µM | [16] > 100 µM | [8] > 100 µM | [9] > 100 µM | [17] > 100 µM | [12] > 100 µM | [13] > 100 µM | [18] > 100 µM | [14] > 100 µM | [19] > 100 µM

CCOC(=O)CCN1C(=O)C(=O)N(c2ccc(OC)cc2)C1=S
inactive: [1] > 100 µM | [15] > 100 µM | [2] > 100 µM | [3] > 100 µM | [20] > 100 µM | [4] 54.6 µM | [5] 39.1 µM | [6] > 100 µM | [16] > 100 µM | [8] > 100 µM | [10] > 100 µM | [17] > 100 µM | [11] > 100 µM | [12] > 100 µM | [13] > 100 µM | [18] > 100 µM | [14] > 100 µM | [19] 16 µM

N=C(N)c1ccc(C(NC(=O)CNS(=O)(=O)c2ccc3ccccc3c2)P(=O)(Oc2ccccc2)Oc2ccccc2)cc1 (stereo not given)
inactive: [15] > 100 µM | [2] 29.8 µM | [3] > 100 µM | [4] 50 µM | [5] 47.4 µM | [6] 28.1 µM | [7] 54 µM | [16] 35.6 µM | [8] > 100 µM | [9] > 100 µM | [10] > 100 µM | [17] 29.8 µM | [12] 27.7 µM | [13] 27 µM | [14] 39.4 µM | [19] 44.1 µM

Cc1nnc2n1N=C(c1cc(F)c(Cl)cc1Cl)/C(=C/c1ccc(-c3ccc([N+](=O)[O-])cc3)o1)S2
inactive: [1] > 100 µM | [15] > 100 µM | [2] 37.2 µM | [3] 65.9 µM | [20] > 100 µM | [4] 31.8 µM | [5] 69.2 µM | [6] 33.2 µM | [7] 44 µM | [16] 50.4 µM | [8] 34.3 µM | [9] > 100 µM | [17] > 100 µM | [11] > 100 µM | [12] 35.3 µM | [14] 71.8 µM | [19] > 100 µM

Oc1ccc(-c2nc(-c3cccnc3)c(-c3ccc(Cl)cc3)[nH]2)cc1
inactive: [15] 14.5 µM | [2] 1.79 µM | [3] 10.3 µM | [20] 13.2 µM | [4] 10.5 µM | [5] 11.9 µM | [6] 6.89 µM | [7] 11.3 µM | [16] 12.3 µM | [8] 13 µM | [9] 12.5 µM | [10] 13.3 µM | [17] 14.6 µM | [11] 14 µM | [12] 15.8 µM | [13] 7.46 µM | [18] 13.3 µM | [14] 14.3 µM | [19] 12.9 µM

COC(=O)C(Cc1c[nH]c2ccccc12)NC(=O)C(Cc1c[nH]c2ccccc12)NC(=O)C(Cc1c[nH]c2ccccc12)NC(=O)C(Cc1c[nH]c2ccccc12)NC(=O)C(Cc1c[nH]c2ccccc12)NC(=O)C(Cc1c[nH]c2ccccc12)NC(=O)C(Cc1c[nH]c2ccccc12)NC(=O)OC(C)(C)C (stereo not given) (Boc-WWWWWWW-OMe; configuration not given here)
inactive: [15] > 100 µM | [2] 92.7 µM | [4] 64.1 µM | [6] 84.9 µM | [7] 59.4 µM | [16] > 100 µM | [8] 64.1 µM | [9] > 100 µM | [17] > 100 µM | [12] 62.2 µM | [13] 17.3 µM | [18] 43.6 µM | [14] 37.4 µM | [19] 51.5 µM

COc1cc(O)c2c(=O)c(O)c(-c3ccc(O)c(O)c3)oc2c1 [RHAMNETIN]
inactive: [1] 3.68 µM | [15] 5.47 µM | [2] 3.61 µM | [3] 13.5 µM | [20] 10.2 µM | [4] 9.53 µM | [6] 11.7 µM | [7] 17.8 µM | [16] 13 µM | [9] 3.9 µM | [17] 7.26 µM | [11] 21.2 µM | [18] 21.4 µM | [14] 4.86 µM | [19] 7.91 µM

CN(C)CCOc1ccc(/C(=C(/CCCl)c2ccccc2)c2ccccc2)cc1 [TOREMIFENE CITRATE]
inactive: [15] 17.5 µM | [2] 6.1 µM | [3] 19.4 µM | [20] 15.9 µM | [4] 11.5 µM | [5] 17.7 µM | [6] 18.1 µM | [7] 1.58 µM | [16] 17.4 µM | [8] 17.5 µM | [9] 11.9 µM | [17] 17.4 µM | [11] 15 µM | [12] 16.7 µM | [13] 11.9 µM | [18] 15.3 µM | [14] 17.8 µM
